{"source": "patent US20250353835A1", "about": "“N-TETRAZOLYL ARYL UREA-BASED DERIVATIVES, PREPARATION METHOD THEREFOR, AND USE THEREOF” (Hangzhou Yirui Pharmaceutical Technology Co., Ltd, priority 2022, published 2025)", "key": {"human B1R": {"molecular_target": "T1, human B1R (Homo sapiens, UniProt P46663)", "T1 construct": "host or cells: HEK293", "T1 sequence (P46663 1-353)": "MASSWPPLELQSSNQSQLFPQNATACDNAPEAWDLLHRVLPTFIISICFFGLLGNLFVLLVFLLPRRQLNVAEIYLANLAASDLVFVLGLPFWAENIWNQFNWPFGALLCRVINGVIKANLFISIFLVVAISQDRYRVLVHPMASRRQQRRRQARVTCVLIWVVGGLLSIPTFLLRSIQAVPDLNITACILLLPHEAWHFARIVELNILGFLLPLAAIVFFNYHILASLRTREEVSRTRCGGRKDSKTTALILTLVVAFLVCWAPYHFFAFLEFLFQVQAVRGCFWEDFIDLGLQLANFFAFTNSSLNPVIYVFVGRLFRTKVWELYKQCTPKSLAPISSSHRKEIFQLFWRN", "experiment": "FLIPR calcium ion flux assay, inhibitory activity against human B1R", "type": "cell-based", "details": "HEK293 cells stably expressing human B1R; agonist [Lys-des-Arg9]-Bradykinin 4.6 nM (EC80); FLIPR method", "procedure": "The inhibitory activity of the compounds against human B1R and B2R channels was determined by calcium ion flux assay using fluorometric imaging plate reader (FLIPR method). See literatures of Lee, Chen et al. for the method. [Lee et al. 2008][Chen et al. 2011]\n1. Cell culture: HEK293 recombinant cell lines (WuXi AppTec, Shanghai, China) stably expressing human B1R and B2R were cultured in DMEM (Invitrogen, Cat #11965) medium containing 10% calf serum (Excellbio, Cat #FSP500), 5 μg/ml Geneticin (Invitrogen, Cat #10131) and Penicillin/Streptomycin (Invitrogen, Cat #15140). The incubator conditions were 37° C. and ambient humidity containing 5% CO2.\n2. Preparation of the cell assay plate: B1R and B2R cells were seeded in a 384-well assay plate (Greiner, Cat #781090) at a density of 20,000 cells per well (20 μl/well), and cultured overnight at 37° C. in an incubator with 5% CO2. The next day, Fluo-4 Direct™ Loading Buffer (containing 5 mM Probenicid) containing 2× (8 μM) Fluo-4 Direct (Invitrogen, Cat #F10471) was added to each of the wells. The cells were cultured at 37° C. for 50 min, and then culture for at the room temperature 10 min.\n3. Preparation of the compound assay plate: The compound was dissolved in 100% DMSO to make a 30 mM stock solution and stored at −20° C. On the day of use, the stock solution of the compound was thawed at the room temperature. Each of the compounds was serially diluted at 1:5 in DMSO culture medium with a starting concentration of 30 μM for 9 concentration points on a 384-well plate. Each of compounds was diluted in duplicate for testing. [Des-Arg10]-HOE140 was used as a positive control compound, and diluted in the same manner with a starting concentration of 3 μM.\n4. FLIPR assay: The cell assay plate was placed in a FLIPR instrument ([…]). The compounds in the compound assay plate were added to the corresponding wells on the cell assay plate (10 μL/well) using an automatic program. The calcium ion fluorescence signal was recorded to determine whether the compound may have agonist activity. After 10 minutes, a B1R agonist [Lys-des-Arg9]-Bradykinin2 (10 μL/well) with a final concentration of 4.6 nM (EC80) was added to each of the wells to stimulate the generation of intracellular calcium ion flux signals. The Ca^++-dependent fluorescence signal was continuously monitored at a wavelength of 538 nm to analyze the inhibitory activity of the compound.\n5. Data analysis: The data was collected and analyzed by a FLIPR program. The inhibitory (or agonist) activity of the compound at each concentration was evaluated by the fluorescence peak. The IC50 values of the compounds were calculated using EXCEL and PRISM programs."}, "[1]": {"system": "rat model of diabetic retinopathy", "experiment": "Rat model of diabetic retinopathy (STZ)", "type": "in vivo, Wistar rats", "details": "for retinal leukocyte stasis, Leukocyte count: Concanavalin A/FITC, 14 days after intravitreal injection, compounds 0.25%, dexamethasone 0.1%; for number of leukocyte stasis in the retina (fluorescent staining, FIG. 8; in words) / retinal vascular penetration in rats (fluorescent staining, FIG. 6; in words): intraocular injection, versus model group", "procedure": "3.1 Laboratory animals: SPF-grade male Wistar rats, weighed 180-220 g.\n3.3 Animal modeling and grouping: After one week of adaptive feeding, 134 male Wistar rats (weighed 220-260 g) were administered 65 mg/kg of STZ by one-time intraperitoneal injection to prepare a rat model of type I diabetic. The rats were fasting but water was allowable overnight for 15 h. The formulated STZ solution was intraperitoneally injected according to body weight. After 1 h, the diet was resumed and blood glucose was measured at 72 h. The successfully modeled diabetic rats (120 rats) were selected for continued feeding, and randomly divided into the following 6 groups according to blood glucose (20 rats per group), plus a group of normal rats with no STZ injected as a negative control group.\n3.4 Administration: The rats continued to be fed until blood glucose was measured once before administration. After blood glucose reached the standard, drugs were intravitreally injected, and indexs were subsequently tested after 14 days. Blood glucose was measured once before sampling.\n3.5 Evans blue staining method (7 groups, 6 rats per group): Evans blue was intravenously injected. 2 hours later, normal saline was perfused into the left ventricle. The retina was taken to compare between the stained area and the unstained area to detect retinal vascular permeability.\n3.6 Retinal leukocyte stasis detection method (7 groups, 6 rats per group): PBS was perfused into the left ventricle for 1 min to remove red blood cells and other substances. Concanavalin A (FITC (Sigma, C7642) was perfused (20 μg/ml in PBS, 5 mg/kg) to mark adherent leukocytes. 4% PFA was perfused for 4 min for fixation. 1% Albumin (Sigma, A6414) (in PBS) was perfused for 1 min, and then PBS was perfused for 2 min. The retina was taken for retinal wholemount. Thereafter, the stasis of leukocytes on the vascular endothelium was observed under a fluorescence microscope. […]"}}}
{"smiles": "COc1ccc(-c2c(F)cc(NC(=O)N3CCC(C(C)(C)C)CC3)cc2-c2nn[nH]n2)cc1OC", "note": "[Compound 11, 4-(tert-butyl)-N-(2-fluoro-3′,4′-dimethoxy-6-(2H-tetrazol-5-yl)-[1,1′-biphenyl]-4-yl)piperidine-1-carboxamide]", "values": [{"measurement": "IC50", "setting": "human B1R", "result": 0.0146, "unit": "µM"}, {"measurement": "retinal leukocyte stasis, Leukocyte count", "setting": "[1]", "result": "7.20 ± 8.44"}, {"measurement": "number of leukocyte stasis in the retina (fluorescent staining, FIG. 8; in words)", "setting": "[1]", "result": "significantly reduced"}, {"measurement": "retinal vascular penetration in rats (fluorescent staining, FIG. 6; in words)", "setting": "[1]", "result": "significantly reduced"}]}
{"smiles": "COc1ccc(-c2ccc(NC(=O)Nc3ccc(C(F)(F)F)cc3)cc2-c2nn[nH]n2)cc1OC", "note": "[Compound 60, 1-(3′,4′-dimethoxy-2-(2H-tetrazol-5-yl)-[1,1′-biphenyl]-4-yl)-3-(4-(trifluoromethyl)phenyl)urea]", "values": [{"measurement": "IC50", "setting": "human B1R", "result": 0.247, "unit": "µM"}]}
{"smiles": "COc1ccc(-c2ccc(NC(=O)N[C@H]3CC[C@@H](C)CC3)cc2-c2nn[nH]n2)cc1OC", "note": "[Compound 61, 1-(3′,4′-dimethoxy-2-(2H-tetrazol-5-yl)-[1,1′-biphenyl]-4-yl)-3-(4-methylcyclohexyl)urea]", "values": [{"measurement": "IC50", "setting": "human B1R", "result": 0.0922, "unit": "µM"}]}
{"smiles": "COc1ccc(-c2ccc(NC(=O)N[C@H]3CC[C@H](C)CC3)cc2-c2nn[nH]n2)cc1OC", "note": "[Compound 62, 1-(3′,4′-dimethoxy-2-(2H-tetrazol-5-yl)-[1,1′-biphenyl]-4-yl)-3-((trans)-4-methylcyclohexyl)urea]", "values": [{"measurement": "IC50", "setting": "human B1R", "result": 0.0602, "unit": "µM"}]}
{"smiles": "COc1ccc(Oc2ccc(NC(=O)N[C@H]3CC[C@@H](C)CC3)cc2-c2nn[nH]n2)cc1OC", "note": "[Compound 63, 1-(4-(3,4-dimethoxyphenoxy)-3-(2H-tetrazol-5-yl)phenyl)-3-((cis)-4-methylcyclohexyl)urea]", "values": [{"measurement": "IC50", "setting": "human B1R", "result": 7.71, "unit": "µM"}]}
{"smiles": "COc1ccc(Oc2ccc(NC(=O)N[C@H]3CC[C@H](C)CC3)cc2-c2nn[nH]n2)cc1OC", "note": "[Compound 64, 1-(4-(3,4-dimethoxyphenoxy)-3-(2H-tetrazol-5-yl)phenyl)-3-((trans)-4-methylcyclohexyl)urea]", "values": [{"measurement": "IC50", "setting": "human B1R", "result": 9.9, "unit": "µM"}]}
{"smiles": "COc1ccc(-c2ccc(NC(=O)N(C)[C@H]3CC[C@H](C(C)(C)C)CC3)cc2-c2nn[nH]n2)cc1OC", "note": "[Compound 65, 1-((trans)-4-(tert-butyl)cyclohexyl)-3-(3′,4′-dimethoxy-2-(2H-tetrazol-5-yl)-[1,1′-biphenyl]-4-yl)-1-methylurea]", "values": [{"measurement": "IC50", "setting": "human B1R", "result": 0.0435, "unit": "µM"}, {"measurement": "retinal leukocyte stasis, Leukocyte count", "setting": "[1]", "result": "5.14 ± 1.20"}, {"measurement": "number of leukocyte stasis in the retina (fluorescent staining, FIG. 8; in words)", "setting": "[1]", "result": "significantly reduced"}, {"measurement": "retinal vascular penetration in rats (fluorescent staining, FIG. 6; in words)", "setting": "[1]", "result": "significantly reduced"}]}
{"smiles": "C[C@H]1CC[C@H](NC(=O)Nc2ccc(C3=CCOCC3)c(-c3nn[nH]n3)c2)CC1", "note": "[Compound 66, 1-(4-(3,6-dihydro-2H-pyran-4-yl)-3-(2H-tetrazol-5-yl)phenyl)-3-((trans)-4-methylcyclohexyl)urea]", "values": [{"measurement": "IC50", "setting": "human B1R", "result": 1.65, "unit": "µM"}]}
{"smiles": "C[C@H]1CC[C@@H](NC(=O)Nc2ccc(C3CCOCC3)c(-c3nn[nH]n3)c2)CC1", "note": "[Compound 67, 1-((cis)-4-methylcyclohexyl)-3-(4-(tetrahydro-2H-pyran-4-yl)-3-(2H-tetrazol-5-yl)phenyl)urea]", "values": [{"measurement": "IC50", "setting": "human B1R", "result": 13.3, "unit": "µM"}]}
{"smiles": "C[C@H]1CC[C@H](NC(=O)Nc2ccc(C3CCOCC3)c(-c3nn[nH]n3)c2)CC1", "note": "[Compound 68, 1-((trans)-4-methylcyclohexyl)-3-(4-(tetrahydro-2H-pyran-4-yl)-3-(2H-tetrazol-5-yl)phenyl)urea]", "values": [{"measurement": "IC50", "setting": "human B1R", "result": 7.49, "unit": "µM"}]}
{"smiles": "C[C@H]1CC[C@H](NC(=O)Nc2ccc(-c3ccc4c(c3)OCO4)c(-c3nn[nH]n3)c2)CC1", "note": "[Compound 69, 1-(4-(benzo[d][1,3]dioxolan-5-yl)-3-(2H-tetrazol-5-yl)phenyl)-3-((trans)-4-methylcyclohexyl)urea]", "values": [{"measurement": "IC50", "setting": "human B1R", "result": 4.91, "unit": "µM"}]}
{"smiles": "CC(C)(C)[C@H]1CC[C@@H](NC(=O)Nc2ccc(-c3ccc4c(c3)OCO4)c(-c3nn[nH]n3)c2)CC1", "note": "[Compound 70, 1-(4-(benzo[d][1,3]dioxolan-5-yl)-3-(2H-tetrazol-5-yl)phenyl)-3-((cis)-4-(tert-butyl)cyclohexyl)urea]", "values": [{"measurement": "IC50", "setting": "human B1R", "result": 0.303, "unit": "µM"}]}
{"smiles": "C[C@H]1CC[C@@H](NC(=O)Nc2ccc(OC3CCOCC3)c(-c3nn[nH]n3)c2)CC1", "note": "[Compound 72]", "values": [{"measurement": "IC50", "setting": "human B1R", "result": 12, "unit": "µM"}]}
{"smiles": "C[C@H]1CC[C@H](NC(=O)Nc2ccc(OC3CCOCC3)c(-c3nn[nH]n3)c2)CC1", "note": "[Compound 73]", "values": [{"measurement": "IC50", "setting": "human B1R", "result": 13.7, "unit": "µM"}]}
